# Results reported in US9340500B2, “Aromatic heterocyclic derivative having TRPV4-inhibiting activity” (SHIONOGI & CO., LTD., priority 2011, dated 2016).
# Key:
# [1] = Solubility test; format: physicochemical; details: artificial intestinal juice (phosphate buffer) with 1% DMSO, fassgf or other biorelevant, kinetic from dmso stock, artificial intestinal juice pH 6.8, 16 hours at 25° C.
# Outline: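 A DMSO stock was added to artificial intestinal juice at pH 6.8, giving 1% DMSO. The mixture stood 16 hours at 25° C. and was vacuum-filtered. Dissolved compound in the filtrate was quantified by HPLC or LC/MS/MS using absolute calibration.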
# [2] = molecular target: human TRPV4 (Homo sapiens (Human), UniProt Q9HBA0); experiment: Test Example 1: measurement of TRPV4 inhibitory activity (Fluo 4-AM, FLIPR TETRA, 4α-PDD 1 μmol/L); format: cell-based; details: hTRPV4/CHO cells, 4α-PDD 1 μmol/L
# Sequence of human TRPV4 (Q9HBA0 whole entry): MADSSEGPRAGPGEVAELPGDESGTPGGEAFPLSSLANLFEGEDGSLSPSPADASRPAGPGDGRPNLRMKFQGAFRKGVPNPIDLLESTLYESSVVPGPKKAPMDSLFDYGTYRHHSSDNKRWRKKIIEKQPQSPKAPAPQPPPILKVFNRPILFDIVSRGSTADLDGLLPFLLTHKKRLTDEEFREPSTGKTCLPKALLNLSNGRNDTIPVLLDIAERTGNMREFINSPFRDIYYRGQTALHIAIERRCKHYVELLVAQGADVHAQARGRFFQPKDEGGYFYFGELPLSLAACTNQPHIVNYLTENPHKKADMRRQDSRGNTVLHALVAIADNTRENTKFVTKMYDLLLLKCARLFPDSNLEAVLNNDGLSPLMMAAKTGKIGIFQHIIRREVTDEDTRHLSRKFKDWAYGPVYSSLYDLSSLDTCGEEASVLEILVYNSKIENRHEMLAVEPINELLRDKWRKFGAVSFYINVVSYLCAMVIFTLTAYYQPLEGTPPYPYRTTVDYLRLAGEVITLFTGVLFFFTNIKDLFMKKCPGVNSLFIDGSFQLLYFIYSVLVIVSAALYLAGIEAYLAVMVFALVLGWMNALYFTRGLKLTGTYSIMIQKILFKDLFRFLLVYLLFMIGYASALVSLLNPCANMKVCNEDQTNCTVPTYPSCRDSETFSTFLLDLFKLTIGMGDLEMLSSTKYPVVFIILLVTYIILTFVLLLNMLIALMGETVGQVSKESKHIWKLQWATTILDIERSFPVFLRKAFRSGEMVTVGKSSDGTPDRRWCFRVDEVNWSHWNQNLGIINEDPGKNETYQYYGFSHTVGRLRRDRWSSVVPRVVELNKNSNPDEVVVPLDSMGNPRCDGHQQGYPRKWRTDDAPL
# Outline: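 Calcium influx evoked by 4α-PDD (final 1 μmol/L) in hTRPV4/CHO-K1 cells loaded with Fluo-4 AM (final 3 μmol/L), pH 7.4 HEPES-Hanks with probenecid; compounds added 5 min earlier. Inhibition relative to 20 μM Ruthenium Red gave IC50 (logistic), converted to Ki via agonist EC50.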
SMILES,solubility at 16 h [1],IC50 [2]
Cc1c(C(=O)Nc2cccc(C(F)(F)F)c2)cc(-c2ccccc2)n1CCCN(C)C [Compound I-018],> 50 µM,330 nM
Cc1c(C(=O)Nc2cccc(C(F)(F)F)c2)cc(-c2ccccc2)n1CCCNS(C)(=O)=O [Compound I-026],10.1 µM,860 nM
Cc1c(C(=O)Nc2cccc(C(F)(F)F)c2)ccn1CCCN1CCOCC1 [Compound I-007],> 50 µM,8900 nM
